In publication PMC4033654 (Journal of Medicinal Chemistry, 2014):

Columns and labels:
TDP1 = settings: cited from earlier work
ABCG2 = settings: cited from earlier work
MDR-1 = settings: cited from earlier work
DU-145 = settings: read-out: cytotoxicity GI50, prostate DU-145; cited from earlier work
UACC-62 = settings: read-out: cytotoxicity GI50, melanoma UACC-62; cited from earlier work
OVCAR-3 = settings: read-out: cytotoxicity GI50, ovarian OVCAR-3; cited from earlier work
MCF-7 = settings: read-out: cytotoxicity GI50, breast MCF-7; cited from earlier work
HOP-62 = settings: read-out: cytotoxicity GI50, lung HOP-62; cited from earlier work
HCT-116 = settings: read-out: cytotoxicity GI50, colon HCT-116; cited from earlier work
SN12C = settings: read-out: cytotoxicity GI50, renal SN12C; cited from earlier work
recombinant TDP1 = recombinant TDP1 (Homo sapiens, UniProt Q9NUW8); test: Gel-based assay measuring the inhibition of recombinant TDP1; format: biochemical
recombinant TDP1, sequence (Q9NUW8 whole entry): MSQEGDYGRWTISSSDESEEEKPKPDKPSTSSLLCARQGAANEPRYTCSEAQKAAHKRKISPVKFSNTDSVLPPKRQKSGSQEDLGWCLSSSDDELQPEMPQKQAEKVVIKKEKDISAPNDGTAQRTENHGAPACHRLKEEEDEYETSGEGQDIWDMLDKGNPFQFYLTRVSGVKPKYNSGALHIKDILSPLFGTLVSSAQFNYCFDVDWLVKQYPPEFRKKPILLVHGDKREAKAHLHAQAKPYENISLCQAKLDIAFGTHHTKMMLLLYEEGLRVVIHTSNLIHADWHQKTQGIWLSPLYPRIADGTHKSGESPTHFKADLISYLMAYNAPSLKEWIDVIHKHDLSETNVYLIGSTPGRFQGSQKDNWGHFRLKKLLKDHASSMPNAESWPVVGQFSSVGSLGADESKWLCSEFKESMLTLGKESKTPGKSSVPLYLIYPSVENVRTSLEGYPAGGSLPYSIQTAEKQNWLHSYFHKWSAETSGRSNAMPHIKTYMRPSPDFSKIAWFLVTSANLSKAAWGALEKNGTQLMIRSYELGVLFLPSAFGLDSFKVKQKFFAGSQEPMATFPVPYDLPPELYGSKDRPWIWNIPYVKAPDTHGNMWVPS

[1] = tested on: all human cancer cell lines successfully tested; test: NCI60 anti-proliferative screen, all cell lines; format: cell-based

N=C(N)c1ccc(-c2ccc(-c3ccc(C(=N)N)cc3)o2)cc1 [Furamidine (8), Furamidine]
TDP1 inhibitor potency (TDP1): micromolar-range

COc1cc2c3c(n(CCCN4CCOCC4)c(=O)c2cc1OC)-c1cc2c(cc1C3=O)OCO2 [Indotecan (6), indotecan]
substrate for the ABCG2 efflux pump (ABCG2): not a substrate
substrate for the MDR-1 efflux pump (MDR-1): not a substrate

COc1cc2c3c(n(CCCNCCO)c(=O)c2cc1OC)-c1cc2c(cc1C3=O)OCO2 [compound 5]
GI50 (DU-145): < 10 nM
GI50 (UACC-62): 30 nM
GI50 (OVCAR-3): 500 nM
GI50 (MCF-7): < 10 nM
GI50 (HOP-62): 20 nM
GI50 (HCT-116): 100 nM
GI50 (SN12C): < 10 nM

COc1cc2c(=O)n(CCCN3CCOCC3)c3c(c2cc1O)C(=O)c1cc2c(cc1-3)OCO2 [compound 13]
GI50 (MCF-7): 100 nM

C=CCOc1cc2c3c(n(CCCN4CCOCC4)c(=O)c2cc1OC)-c1cc2c(cc1C3=O)OCO2 [compound 15, 2-(Allyloxy)-3-methoxy-6-(3-morpholinopropyl)-5H-[1,3]dioxolo[4′,5′:5,6]indeno [1,2-c]isoquinoline-5,12(6H)-dione]
TDP1 inhibitory activity (recombinant TDP1): no detectable TDP1 inhibitory activity
GI50 against various cell lines [1]: submicromolar

COc1cc2c(=O)n(CCCN3CCOCC3)c3c(c2cc1OCCCN)C(=O)c1cc2c(cc1-3)OCO2.Cl [compound 17, 2-(3-Aminopropoxy)-3-methoxy-6-(3-morpholinopropyl)-5H-[1,3]dioxolo[4′,5′:5,6]indeno[1,2-c]isoquinoline-5,12(6H)-dione]
GI50 against various cell lines [1]: submicromolar

COc1cc2c(=O)n(CCCN3CCOCC3)c3c(c2cc1OCCCN1CCOCC1)C(=O)c1cc2c(cc1-3)OCO2 [compound 20, 3-Methoxy-2-(3-morpholinopropoxy)-6-(3-morpholinopropyl)-5H-[1,3]dioxolo[4′,5′:5,6]indeno[1,2-c]isoquinoline-5,12(6H)-dione]
TDP1 inhibitory activity (recombinant TDP1): no TDP1 inhibitory activity
GI50 against various cell lines [1]: submicromolar

COc1cc2c(=O)n(CCCN3CCOCC3)c3c(c2cc1OCCCN1CCN(C)CC1)C(=O)c1cc2c(cc1-3)OCO2 [compound 21, 3-Methoxy-2-(3-(4-methylpiperazin-1-yl)propoxy)-6-(3-morpholinopropyl)-5H-[1,3]dioxolo[4′,5′:5,6]indeno[1,2-c]isoquinoline-5,12(6H)-dione]
TDP1 inhibitory activity (recombinant TDP1): no TDP1 inhibitory activity

COc1cc2c(=O)n(CCCN3CCOCC3)c3c(c2cc1OCCCN1CCCCC1)C(=O)c1cc2c(cc1-3)OCO2 [compound 22, 3-Methoxy-6-(3-morpholinopropyl)-2-(3-(piperidin-1-yl)propoxy)-5H-[1,3]dioxolo[4′,5′:5,6]indeno[1,2-c]isoquinoline-5,12(6H)-dione]
GI50 against various cell lines [1]: low micromolar

COC(=O)COc1cc2c3c(n(CCCN4CCOCC4)c(=O)c2cc1OC)-c1cc2c(cc1C3=O)OCO2 [compound 24, Methyl 2-((3-Methoxy-6-(3-morpholinopropyl)-5,12-dioxo-6,12-dihydro-5H-[1,3]dioxolo[4′,5′:5,6]indeno[1,2-c]isoquinolin-2-yl)oxy)acetate]
GI50 against various cell lines [1]: low micromolar

COc1cc2c3c(n(CCCn4ccnc4)c(=O)c2cc1OC)-c1cc2c(cc1C3=O)OCO2 [indimitecan (7), indimitecan]
substrate for the ABCG2 efflux pump (ABCG2): less affected than the camptothecins
substrate for the MDR-1 efflux pump (MDR-1): less affected than the camptothecins
